Measurements published in patent US20060234911A1, “Method of reversing epithelial mesenchymal transition” (priority 2005, published 2006).

B1: BMP7: TGFβ superfamily member that acts through distinct receptors and Smad proteins (protein, UniProt P18075 293-431, looked up)
Bone morphogenetic protein 7: STGSKQRSQNRSKTPKNQEALRMANVAENSSSDQRQACKKHELYVSFRDLGWQDWIIAPEGYAAYYCEGECAFPLNSYMNATNHAIVQTLVHFINPETVPKPCCAPTQLNAISVLYFDDSSNVILKKYRNMVVRACGCH

Legend:
mTEC-KO cells [1] = assay: Reversal of mesenchymal actin cytoskeleton, F-actin phalloidin staining; format: cell-based, mouse; settings: 100 pM TGF-β1 72 h, then inhibitor 24 h; 5 μM SB431542, 1 μM SB203580, 1 μM Y27632, 10 μM U0126, 15 μM SP600125
Method: Renal tubular epithelial cells (mTEC-KOs) were treated with 100 pm TGF-β1 for 72 hours and then kinase inhibitors were added for an additional 24 hours. The F-actin in the cells was visualized by staining with phalloidin. mTEC-KO cells were treated with a single kinase inhibitor (A-E) or with SB431542 plus a second kinase inhibitor (F-I). Single kinase inhibitors and concentrations were: 5 μM SB431542 (A), 1 μM SB203580 (B), 1 μM Y27632 (C), 10 μM U0126 (D), or 15 μM SP600125 (E). Combination kinase inhibitors included 5 μM SB431542 with 1 μM SB203580 (F), 1 μM Y27632 (G), 10 μM U0126 (H) or 15 μM SP600125 (I). […] White arrows point to stress fibers.
(§1) Cells were seeded on glass cover slips (Fisher) and cultured as described above. Cells were treated, fixed in 4% paraformaldehyde, and permeabilized in PBS containing 0.1% Triton X-100 for 10 min. Nonspecific sites were blocked with 10% BSA or normal goat serum for 30 min. F-actin was stained at a 1:1000 dilution in 2% BSA of Texas Red-conjugated phalloidin (Sigma) and incubated for 30 min. E-cadherin (BD Biosciences) was diluted at 1:200 in 2% normal goat serum and a secondary antibody (Molecular Probes) at a 1:500 dilution was used for detection. All washes were done in 1× PBS.
To examine the reversibility of the EMT induced by TGF-β1 in mTEC-KO cells, we added inhibitors of kinases previously implicated in EMT. Cells were treated with 100 pM TGF-β1 for 72 hours to induce EMT and kinase inhibitors were added for an additional 24 hours. […] To assess the effects of the kinase inhibitors on EMT, the actin cytoskeleton was examined by phalloidin staining.
Since EMT effects are mediated by multiple cellular pathways and none of the single kinase inhibitors reverted the EMT phenotype, we applied combinations of two inhibitors. […] Cortical actin bordering the cell-cell junctions was restored by both combinations. The addition of either the MEK1 inhibitor or the JNK inhibitor to the […] inhibitor had no detectable effect on the mesenchymal phenotype of the cells (FIGS. 4H and I).

Ksp-cadherin = Ksp-cadherin mRNA by quantitative RT-PCR after EMT; format: cell-based, mouse; settings: 100 pM TGF-β1 72 h, then inhibitor(s) for an additional 24 hours
Method: In a six well plate, 50,000 cells were seeded and appropriately treated. Total RNA was isolated using RNAeasy Miniprep kit (Qiagen) and quantified by UV spectrophotometer. 1.5 μg of RNA was converted by reverse transcriptase into cDNA using the OmniScript kit (Qiagen). […] 3′. cDNA was amplified in an Opticon 2 PCR machine (MJ Research) and labeled by the DyNAmo SYBR Green qPCR Kit. The amplification was carried out in the following manner: initial denaturation for 10 min at 95° C., denaturation for 10 sec at 95° C., annealing for 30 sec at the appropriate temperature, and extension for 30 sec at 72° C. Standards were created from Pfu (Stratagene) amplified PCR products purified by gel purification. Glyceraldehyde-3-phosphate dehydrogenase (GAPDH) was used as an internal control to normalize gene expression.
The effects of individual or combinations of kinase inhibitors on the expression of several genes altered by EMT were measured by quantitative RT-PCR.

SM22 = SM22 mRNA by quantitative RT-PCR after EMT; format: cell-based, mouse; settings: 100 pM TGF-β1 72 h, then inhibitor(s) for an additional 24 hours
Method: (§2) FIG. 5: Restoration of epithelial gene expression patterns by kinase inhibitors illustrates a requirement for two kinase inhibitors to restore cadherin expression. mTEC-KO cells were treated with 100 pm TGF-β1 for 72 hours to induce EMT. Single kinase inhibitors or inhibitor combinations were added, cells were grown for an additional 24 hours and harvested for preparation of RNA. Ksp-cadherin (A), SM22 (B), and MMP-9 (C) mRNA levels were measured by quanitative RT-PCR. Significant differences between the untreated (No TGF-β1) cells versus cells treated with TGF-β1 or with TGF-β1 followed by inhibitor are indicated with an asterisk (*) (P<0.05, n=9). Significant differences between single inhibitors versus combination inhibitors are indicated by a letter (a,b,c) over the bar showing the combination. Each letter refers to the single inhibitor in the graph (indicated by the letter below the name of the inhibitor).
(§3) In a six well plate, 50,000 cells were seeded and appropriately treated. Total RNA was isolated using RNAeasy Miniprep kit (Qiagen) and quantified by UV spectrophotometer. 1.5 μg of RNA was converted by reverse transcriptase into cDNA using the OmniScript kit (Qiagen). Primers used for Q-PCR were: KSP-Cadherin forward-5′ CTG CAC ACA GM GTC CCT GA 3′, reverse 5′ CCTTGTCGCCACTAGAAAGC 3′; MMP-9-SuperArray (Frederick, Md.) PPM03661A; SM22 forward 5′GCA GTC CM MT TGA GM GA 3′, reverse 5′ CTGTTGCTGCCCATTTGAAG 3′; PAI-1 forward 5′TTCAGCCCTTGCTTGCCTC 3′, reverse 5′[…] 3′. cDNA was amplified in an Opticon 2 PCR machine (MJ Research) and labeled by the DyNAmo SYBR Green qPCR Kit. The amplification was carried out in the following manner: initial denaturation for 10 min at 95° C., denaturation for 10 sec at 95° C., annealing for 30 sec at the appropriate temperature, and extension for 30 sec at 72° C. Standards were created from Pfu (Stratagene) amplified PCR products purified by gel purification. Glyceraldehyde-3-phosphate dehydrogenase (GAPDH) was used as an internal control to normalize gene expression. […]

MMP-9 = MMP-9 mRNA by quantitative RT-PCR after EMT; format: cell-based, mouse; settings: 100 pM TGF-β1 72 h, then inhibitor(s) for an additional 24 hours
Method: as §2, §3

E-cadherin = E-cadherin immunofluorescence at cell junctions after EMT; format: cell-based, mouse; settings: 100 pM TGF-β1 72 h, then inhibitors for an additional 36 hours; 5 μM SB431542, 5 μM SB203580, 5 μM Y27632, 15 μM SP600125
Method: FIG. 6: E-cadherin is restored by combining TβRI kinase inhibitor with either the ROCK inhibitor or the p38 MAPK inhibitor. E-cadherin is found between mTEC-KO cells (A). mTEC-KO cells were treated with 100 pM TGF-β1 for 72 hours to induce mesenchymal state in which E-cadherin is lost (B). Single inhibitors or combinations of two inhibitors were added for an additional 36 hours. […] E-cadherin reformed between cells that used combination kinase inhibitors which included 5 μM SB431542 with 5 μM SB203580 (G), 5 μM Y27632 (H), but not 15 μM SP600125 (I). Cell lysates from mTEC-KOs were analyzed by western blot using antibodies to E-cadherin and β-tubulin (J). Control epithelial cells were grown without TGF-β (Lane 3). The cells were then treated for an additional 48 hours with no inhibitor (Lane 2), single inhibitors (5 μM Y27632, Lane 6; 5 μM SB203580, Lane 7; 5 μM SB431542, Lane 8) or with the combination of 5 μM SB431542 with either 15 μM SP600125 (Lane 1), 5 μM Y27632 (Lane 4) or 5 μM SB203580 (Lane 5).
as §1
An important criterion for epithelium restoration is re-expression of the cell-cell junction adhesion protein E-cadherin. mTEC-KO cells were treated with 100pm TGF-β1 for 72 hours to induce EMT and then kinase inhibitors were added for an additional 24-48 hours (FIG. 6).

mTEC-KO cells [2] = assay: Blocking of TGF-β1-induced EMT (cell morphology, phalloidin staining); format: cell-based, mouse; settings: 10 μM SB431542 together with TGF-β1 for 72 hours
Method: FIG. 1: TGF-β1 induces EMT in renal tubular epithelial cells. mTEC-KOs were incubated for 72 hours without TGF-β1 (A,D), with 100 pM TGF-β1 (B, E) or with TGF-β1 and 10 μM SB431542. Cell morphology was observed by brightfield phase microscopy at 100× magnification (A-C). […] White arrows point to stress fibers.
TGF-β knockout Murine Renal Epithelial Tubular Cells (mTEC-KO) were maintained in Renal Epithelial Cell Growth Medium (Cambrex, Md.) containing 0.25% Fetal Bovine serum (FBS), supplemented with a Bullet Kit that contained: epidermal growth factor, insulin, hydrocortisone, GA-1000, epinephrine, T3, transferrin (Cambrex), as well as penicillin and streptomycin (Gibco) in a 37° humidified 5% CO2 incubator.
as §1, with “PBS. […]” for “PBS.”

PAI-1 = PAI-1 mRNA expression by quantitative RT-PCR in TGFβ-induced mesenchymal cells; format: cell-based, mouse; settings: 100 pM TGF-β1 72 hours, then 5 uM inhibitor for 24 hours
Method: TGFβ1 ligand (100 pM) was added to mTEC-KOs for 72 hours, followed by the addition of 5 μM SB431542 plus 100 pM TGFβ1 for an additional time 24 hours. Cell lysates were used to prepare RNA which was examined by quantitative RT-PCR for PAI-1. Significant differences in PAI-1 expression level between cells treated with TGF-β1 alone versus cells treated with TGF-β1 and then with inhibitor for the indicated times are indicated with an asterisk (*) (P<0.05, n=9).
as §3, with “C.” for “C. Standards were created from Pfu (Stratagene) amplified PCR products purified by gel purification. Glyceraldehyde-3-phosphate dehydrogenase (GAPDH) was used as an internal control to normalize gene expression.”

[3] = cited from earlier work
[4] = tested on: mouse distal tubular epithelial cells; settings: 100 ng/ml BMP7 for 48 hours; cited from earlier work
[5] = 300 ug/kg human BMP7 every other day beginning at week three; cited from earlier work

Molecule | reversal of mesenchymal actin stress fiber morphology, single kinase inhibitor (mTEC-KO cells [1]) | Ksp-cadherin mRNA level (Ksp-cadherin) | SM22 mRNA level (SM22) | MMP-9 mRNA level (MMP-9) | E-cadherin at cell junctions (localization) (E-cadherin) | also measured
C[S+]([O-])c1ccc(-c2nc(-c3ccncc3)c(-c3ccc(F)cc3)[nH]2)cc1 (stereo not shown) [SB203580] | fail to reverse the mesenchymal actin cytoskeleton | led to a further decrease in Ksp-cadherin expression | did not reduce SM22 or MMP9 transcript levels | did not reduce SM22 or MMP9 transcript levels | caused an increase in reforming E-cadherin at cell junctions | –
NC(=O)c1ccc(-c2nc(-c3ccc4c(c3)OCO4)c(-c3ccccn3)[nH]2)cc1 [SB431542] | did not reverse the mesenchymal actin stress fiber morphology | increased Ksp-cadherin to intermediate levels | efficiently reduced SM22 and MMP-9 expression to pre-EMT levels | efficiently reduced SM22 and MMP-9 expression to pre-EMT levels | caused an increase in reforming E-cadherin at cell junctions | TGF-β1-induced transition of epithelial cells into mesenchymal cells (mTEC-KO cells [2]): blocked the TGF-β1-induced transition of the mTEC-KO epithelial cells into mesenchymal cells; actin stress fibers (phalloidin) when inhibitor is given with TGF-β1 (mTEC-KO cells [2]): very few actin stress fibers were observed; PAI-1 mRNA level (PAI-1): sufficient to reduce the mRNA level
N#CC(=C(/N)Sc1ccccc1N)/C(C#N)=C(\N)Sc1ccccc1N [U0126] | fail to reverse the mesenchymal actin cytoskeleton | – | – | – | – | –
C[C@@H](N)[C@H]1CC[C@H](C(=O)Nc2ccncc2)CC1 [Y27632] | fail to reverse the mesenchymal actin cytoskeleton | increased Ksp-cadherin to intermediate levels | partially reduced SM22 levels | increased the level of MMP9 expression | caused an increase in reforming E-cadherin at cell junctions | –
HGF: hepatocyte growth factor | – | – | – | – | – | reversal of EMT in vivo [3]: only provided a partial reversal of EMT
B1 | – | – | – | – | – | reversal of TGF-β1 induced EMT (E-cadherin expression, epithelial morphology) [4]: reversed; renal pathology (mortality, renal function) [5]: reversed the renal pathology as indicated by a decline in mortality, and improvement in renal function
